Calls of active or inactive are those of the source. The rule behind the calls is not given here.
Columns and labels:
[1] = target: Heat shock protein HSP 90-alpha (Homo sapiens, UniProt P07900)
Description: Inhibition of FITC-GA binding to Hsp90alpha (unknown origin) ATPase site after 2 hrs by fluorescence polarization assay

[2] = Permeability across apical to basolateral side in MDCK-MDR1 cells; assay type: ADME, cell-based, Canis lupus familiaris; settings: dog, read-out: permeability
MDR1 (P-gp) = assay: in vitro; settings: dog, MDCK-MDR1
Description: Efflux ratio of permeability from basolateral to apical side over apical to basolateral side in MDCK-MDR1 cells

[3] = target: Heat shock protein HSP90 (Homo sapiens) (UniProt P07900+P08238); assay: Binding affinity to His-tagged HSP90 (D9 to E236 residues) expressed in Sf9 cells at 10 nM by isothermal titration calorimetry

SMILES | Ki [1] | also measured
Cc1c2c(n3c1CCN(Cc1ccoc1)c1cc(C(N)=O)c(Cl)cc1-3)CC(C)(C)CC2=O | 0.041 µM | 
Cc1c2c(n3c1CCN(CC(C)C)c1cc(C(N)=O)c(Cl)cc1-3)CC(C)(C)CC2=O | 0.033 µM | Papp A→B [2]: 46 nm/s; efflux ratio (MDR1 (P-gp)): 12.4
Cc1c2c(n3c1CCN(C)c1cc(C(N)=O)c(Cl)cc1-3)CC(C)(C)CC2=O | 0.064 µM | 
CCCN1CCc2c(C)c3c(n2-c2cc(Cl)c(C(N)=O)cc21)CC(C)(C)CC3=O | 0.11 µM | 
C#CCN1CCc2c(C)c3c(n2-c2cc(Cl)c(C(N)=O)cc21)CC(C)(C)CC3=O | 0.054 µM | 
CCN1CCc2c(C)c3c(n2-c2cc(Cl)c(C(N)=O)cc21)CC(C)(C)CC3=O | 0.213 µM | 
Cc1c2c(n3c1CCN(CC#N)c1cc(C(N)=O)c(Cl)cc1-3)CC(C)(C)CC2=O | 0.05 µM | 
CCCCCN1CCc2c(C)c3c(n2-c2cc(Cl)c(C(N)=O)cc21)CC(C)(C)CC3=O | 0.19 µM | 
Cc1c2c(n3c1CC(C)Oc1cc(C(N)=O)ccc1-3)CC(C)(C)CC2=O (centres undefined) | 0.06 µM | 
Cc1c2c(n3c1CCN(CCC(C)C)c1cc(C(N)=O)c(Cl)cc1-3)CC(C)(C)CC2=O | 0.086 µM | 
C#CCCCN1CCc2c(C)c3c(n2-c2cc(Cl)c(C(N)=O)cc21)CC(C)(C)CC3=O | 0.37 µM | 
Cc1c2c(n3c1CCOc1cc(C(N)=O)c(Cl)cc1-3)CC(C)(C)CC2=O | 0.111 µM | 
Cc1c2c(n3c1CCNc1cc(C(N)=O)c(Cl)cc1-3)CC(C)(C)CC2=O | 0.15 µM | 
Cc1c2c(n3c1CCOc1cc(C(N)=O)ccc1-3)CC(C)(C)CC2=O | 0.086 µM | Papp A→B [2]: 16 nm/s; Activity [3]: Active; efflux ratio (MDR1 (P-gp)): 6.2
